In BindingDB's records for doi:10.1021/jm00006a008 (Glaxo Research Institute, 1995):

Experiment: Inhibition of bovine topoisomerase I, using cleavable complex assay.

Compound | IC50
CCC1(O)C(=O)OCc2c1cc1n(c2=O)C/C(=C2\C(=O)Nc3ccc(Cl)cc32)C1=O (stereo not drawn) [7-[5-Chloro-2-oxo-1,2-dihydro-indol-(3E)-ylidene]-4-ethyl-4-hydroxy-1,4,7,8-tetrahydro-pyrano[3,4-f]indolizine-3,6,10-trione] | > 100 µM
CC[C@]1(O)C(=O)OCc2c1cc1n(c2=O)C/C(=C2\C(=O)Nc3c(Cl)cccc32)C1=O [(R)-7-[7-Chloro-2-oxo-1,2-dihydro-indol-(3E)-ylidene]-4-ethyl-4-hydroxy-1,4,7,8-tetrahydro-pyrano[3,4-f]indolizine-3,6,10-trione] | > 100 µM
CC[C@]1(O)C(=O)OCc2c1cc1n(c2=O)C/C(=C2\C(=O)Nc3ccc(I)cc32)C1=O [(R)-4-Ethyl-4-hydroxy-7-[5-iodo-2-oxo-1,2-dihydro-indol-(3E)-ylidene]-1,4,7,8-tetrahydro-pyrano[3,4-f]indolizine-3,6,10-trione] | 12.1 µM
CC[C@@]1(O)C(=O)OCc2c1cc1n(c2=O)C/C(=C2\C(=O)Nc3ccccc32)C1=O [(S)-4-Ethyl-4-hydroxy-7-[2-oxo-1,2-dihydro-indol-(3E)-ylidene]-1,4,7,8-tetrahydro-pyrano[3,4-f]indolizine-3,6,10-trione] | > 100 µM
CCC1(O)C(=O)OCc2c1cc1n(c2=O)C/C(=C2\C(=O)N(C)c3ccccc32)C1=O (stereo not drawn) [4-Ethyl-4-hydroxy-7-[1-methyl-2-oxo-1,2-dihydro-indol-(3E)-ylidene]-1,4,7,8-tetrahydro-pyrano[3,4-f]indolizine-3,6,10-trione] | > 100 µM
CCC1(O)C(=O)OCc2c1cc1n(c2=O)C/C(=C2\C(=O)Nc3c2ccc(F)c3C)C1=O (stereo not drawn) [4-Ethyl-7-[6-fluoro-7-methyl-2-oxo-1,2-dihydro-indol-(3E)-ylidene]-4-hydroxy-1,4,7,8-tetrahydro-pyrano[3,4-f]indolizine-3,6,10-trione] | > 100 µM
CC[C@]1(O)C(=O)OCc2c1cc1n(c2=O)C/C(=C2\C(=O)Nc3ccc(C)cc32)C1=O [(R)-4-Ethyl-4-hydroxy-7-[5-methyl-2-oxo-1,2-dihydro-indol-(3E)-ylidene]-1,4,7,8-tetrahydro-pyrano[3,4-f]indolizine-3,6,10-trione] | 1.8 µM
CCC1(O)C(=O)OCc2c1cc1n(c2=O)C/C(=C2\C(=O)Nc3ccc(F)cc32)C1=O (stereo not drawn) [4-Ethyl-7-[5-fluoro-2-oxo-1,2-dihydro-indol-(3E)-ylidene]-4-hydroxy-1,4,7,8-tetrahydro-pyrano[3,4-f]indolizine-3,6,10-trione] | 1.2 µM
CCC1(O)C(=O)OCc2c1cc1n(c2=O)C/C(=C2\C(=O)Nc3ccccc32)C1=O (stereo not drawn) [4-Ethyl-4-hydroxy-7-[2-oxo-1,2-dihydro-indol-(3E)-ylidene]-1,4,7,8-tetrahydro-pyrano[3,4-f]indolizine-3,6,10-trione] | 5.8 µM
CC[C@]1(O)C(=O)OCc2c1cc1n(c2=O)C/C(=C2\C(=O)Nc3c2cc(C)cc3[N+](=O)[O-])C1=O [(R)-4-Ethyl-4-hydroxy-7-[5-methyl-7-nitro-2-oxo-1,2-dihydro-indol-(3E)-ylidene]-1,4,7,8-tetrahydro-pyrano[3,4-f]indolizine-3,6,10-trione] | > 100 µM
CC[C@]1(O)C(=O)OCc2c1cc1n(c2=O)C/C(=C2\C(=O)Nc3ccccc32)C1=O [(R)-4-Ethyl-4-hydroxy-7-[2-oxo-1,2-dihydro-indol-(3E)-ylidene]-1,4,7,8-tetrahydro-pyrano[3,4-f]indolizine-3,6,10-trione] | 4 µM
CC[C@]1(O)C(=O)OCc2c1cc1n(c2=O)C/C(=C2\C(=O)Nc3ccc(F)cc32)C1=O [(R)-4-Ethyl-7-[5-fluoro-2-oxo-1,2-dihydro-indol-(3E)-ylidene]-4-hydroxy-1,4,7,8-tetrahydro-pyrano[3,4-f]indolizine-3,6,10-trione] | 1.1 µM
CCC1(O)C(=O)OCc2c1cc1n(c2=O)C/C(=C2\C(=O)Nc3c2cc(F)c(F)c3F)C1=O (stereo not drawn) [4-Ethyl-4-hydroxy-7-[5,6,7-trifluoro-2-oxo-1,2-dihydro-indol-(3E)-ylidene]-1,4,7,8-tetrahydro-pyrano[3,4-f]indolizine-3,6,10-trione] | > 100 µM
CC[C@]1(O)C(=O)OCc2c1cc1n(c2=O)C/C(=C2\C(=O)Nc3cc(OC(F)(F)F)ccc32)C1=O [(R)-4-Ethyl-4-hydroxy-7-[2-oxo-6-trifluoromethoxy-1,2-dihydro-indol-(3E)-ylidene]-1,4,7,8-tetrahydro-pyrano[3,4-f]indolizine-3,6,10-trione] | > 100 µM
CC[C@]1(O)C(=O)OCc2c1cc1n(c2=O)C/C(=C2\C(=O)Nc3c(C)cccc32)C1=O [(R)-4-Ethyl-4-hydroxy-7-[7-methyl-2-oxo-1,2-dihydro-indol-(3E)-ylidene]-1,4,7,8-tetrahydro-pyrano[3,4-f]indolizine-3,6,10-trione] | > 100 µM
CC[C@@]1(O)C(=O)OCc2c1cc1n(c2=O)C/C(=C2\C(=O)Nc3ccc(F)cc32)C1=O [(S)-4-Ethyl-7-[5-fluoro-2-oxo-1,2-dihydro-indol-(3E)-ylidene]-4-hydroxy-1,4,7,8-tetrahydro-pyrano[3,4-f]indolizine-3,6,10-trione] | > 100 µM
CC[C@]1(O)C(=O)OCc2c1cc1n(c2=O)C/C(=C2\C(=O)Nc3cc(F)c(F)cc32)C1=O [(R)-7-[5,6-Difluoro-2-oxo-1,2-dihydro-indol-(3E)-ylidene]-4-ethyl-4-hydroxy-1,4,7,8-tetrahydro-pyrano[3,4-f]indolizine-3,6,10-trione] | 1.3 µM
CCC1(O)C(=O)OCc2c1cc1n(c2=O)C/C(=C2\C(=O)Nc3cc4c(cc32)OCCO4)C1=O (stereo not drawn) [4-Ethyl-4-hydroxy-7-[7-oxo-2,3,6,7-tetrahydro-[1,4]dioxino[2,3-f]indol-(8E)-ylidene]-1,4,7,8-tetrahydro-pyrano[3,4-f]indolizine-3,6,10-trione] | 29.6 µM
CCC1(O)C(=O)OCc2c1cc1n(c2=O)C/C(=C2\C(=O)Nc3cc(OC)ccc32)C1=O (stereo not drawn) [4-Ethyl-4-hydroxy-7-[6-methoxy-2-oxo-1,2-dihydro-indol-(3E)-ylidene]-1,4,7,8-tetrahydro-pyrano[3,4-f]indolizine-3,6,10-trione] | > 100 µM
CC[C@]1(O)C(=O)OCc2c1cc1n(c2=O)C/C(=C2\C(=O)Nc3ccc(Br)cc32)C1=O [(R)-7-[5-Bromo-2-oxo-1,2-dihydro-indol-(3E)-ylidene]-4-ethyl-4-hydroxy-1,4,7,8-tetrahydro-pyrano[3,4-f]indolizine-3,6,10-trione] | > 100 µM
CCC1(O)C(=O)OCc2c1cc1n(c2=O)C/C(=C2\C(=O)Nc3ccc([N+](=O)[O-])cc32)C1=O (stereo not drawn) [4-Ethyl-4-hydroxy-7-[5-nitro-2-oxo-1,2-dihydro-indol-(3E)-ylidene]-1,4,7,8-tetrahydro-pyrano[3,4-f]indolizine-3,6,10-trione] | > 100 µM
CC[C@]1(O)C(=O)OCc2c1cc1n(c2=O)C/C(=C2\C(=O)Nc3cc(SC)ccc32)C1=O [(R)-4-Ethyl-4-hydroxy-7-[6-methylsulfanyl-2-oxo-1,2-dihydro-indol-(3E)-ylidene]-1,4,7,8-tetrahydro-pyrano[3,4-f]indolizine-3,6,10-trione] | > 100 µM
CCC1(O)C(=O)OCc2c1cc1n(c2=O)C/C(=C2\C(=O)Nc3ccc(I)cc32)C1=O (stereo not drawn) [4-Ethyl-4-hydroxy-7-[5-iodo-2-oxo-1,2-dihydro-indol-(3E)-ylidene]-1,4,7,8-tetrahydro-pyrano[3,4-f]indolizine-3,6,10-trione] | 32 µM
CCC1(O)C(=O)OCc2c1cc1n(c2=O)C/C(=C2\C(=O)Nc3cc(F)c(F)cc32)C1=O (stereo not drawn) [7-[5,6-Difluoro-2-oxo-1,2-dihydro-indol-(3E)-ylidene]-4-ethyl-4-hydroxy-1,4,7,8-tetrahydro-pyrano[3,4-f]indolizine-3,6,10-trione] | 1.5 µM

Experiment: Inhibitory concentration against topoisomerase I obtained from calf thymus

Compound | IC50
CC[C@]1(O)C(=O)OCc2c1cc1n(c2=O)Cc2c-1nc1ccccc1c2C(=O)O [(R)-4-Ethyl-4-hydroxy-3,13-dioxo-3,4,12,13-tetrahydro-1H-2-oxa-6,12a-diaza-dibenzo[b,h]fluorene-11-carboxylic acid] | 2.1 µM
CC[C@]1(O)C(=O)OCc2c1cc1n(c2=O)Cc2c-1nc1ccc(C)cc1c2C(=O)O [(R)-4-Ethyl-4-hydroxy-9-methyl-3,13-dioxo-3,4,12,13-tetrahydro-1H-2-oxa-6,12a-diaza-dibenzo[b,h]fluorene-11-carboxylic acid] | 1.9 µM
CCOC(=O)c1c2c(nc3cc4c(cc13)OCCO4)-c1cc3c(c(=O)n1C2)COC(=O)C3(O)CC (stereo not drawn) [ethyl 8-ethyl-8-hydroxy-9,12-dioxo-2,3,8,9,12,14-hexahydro-11H-[1,4]dioxino[2,3-g]pyrano[3',4':6,7]indolizino[1,2-b]quinoline-15-carboxylate] | 0.7 µM
CCC1(O)C(=O)OCc2c1cc1n(c2=O)Cc2c-1nc1cc3c(cc1c2C(=O)O)OCCO3 (stereo not drawn) [8-ethyl-8-hydroxy-9,12-dioxo-2,3,8,9,12,14-hexahydro-11H-[1,4]dioxino[2,3-g]pyrano[3',4':6,7]indolizino[1,2-b]quinoline-15-carboxylic acid] | 24.1 µM
CCC1(O)C(=O)OCc2c1cc1n(c2=O)Cc2c-1nc1cccc(I)c1c2C(=O)O (stereo not drawn) [4-Ethyl-4-hydroxy-10-iodo-3,13-dioxo-3,4,12,13-tetrahydro-1H-2-oxa-6,12a-diaza-dibenzo[b,h]fluorene-11-carboxylic acid] | 1.3 µM
CCC1(O)C(=O)OCc2c1cc1n(c2=O)Cc2c-1nc1ccc(F)cc1c2C(=O)O (stereo not drawn) [4-Ethyl-9-fluoro-4-hydroxy-3,13-dioxo-3,4,12,13-tetrahydro-1H-2-oxa-6,12a-diaza-dibenzo[b,h]fluorene-11-carboxylic acid] | 3.2 µM
CCC1(O)C(=O)OCc2c1cc1n(c2=O)Cc2c-1nc1cc(F)c(F)cc1c2C(=O)O (stereo not drawn) [4-Ethyl-8,9-difluoro-4-hydroxy-3,13-dioxo-3,4,12,13-tetrahydro-1H-2-oxa-6,12a-diaza-dibenzo[b,h]fluorene-11-carboxylic acid] | 1.5 µM
CCC1(O)C(=O)OCc2c1cc1n(c2=O)Cc2c-1nc1ccc(I)cc1c2C(=O)O (stereo not drawn) [4-Ethyl-4-hydroxy-9-iodo-3,13-dioxo-3,4,12,13-tetrahydro-1H-2-oxa-6,12a-diaza-dibenzo[b,h]fluorene-11-carboxylic acid] | 2.3 µM
CC[C@@]1(O)C(=O)OCc2c1cc1n(c2=O)Cc2c-1nc1ccc(F)cc1c2C(=O)O [(S)-4-Ethyl-9-fluoro-4-hydroxy-3,13-dioxo-3,4,12,13-tetrahydro-1H-2-oxa-6,12a-diaza-dibenzo[b,h]fluorene-11-carboxylic acid] | > 100 µM
